The record followed here is paper PMC12121777 (PLOS One, 2025).

Assay [1] relates to Mycobacterium avium 330/88. Briefly: MIC, micro method in Šula's semisynthetic medium, M. avium. The format is cell-based.
The next assay has as its system Mtb 331/88 (i.e., H37Rv). As to the kind of experiment: MIC, micro method in Šula's semisynthetic medium, drug-susceptible Mtb. It is filed as cell-based, Mycobacterium tuberculosis. The settings on record: Mycobacterium tuberculosis, H37RV.
The subject of assay [2] is Mycobacterium kansasii 6509/96. Briefly: MIC, micro method in Šula's semisynthetic medium, M. kansasii clinical isolate. It is filed as cell-based. The settings on record: read-out: MIC M. kansasii 6509/96.
Another assay has as its system HepG2 cells. As to the kind of experiment: Cytotoxicity on HepG2 cell line (CellTiter 96). The format is cell-based, human. The settings on record: read-out: IC50 HepG2.
The mark [3] stands for this setting: 330/88, 336 h, read-out: MIC M. avium 330/88.
The mark [4] stands for this setting: 330/88, 504 h, read-out: MIC M. avium 330/88.

Each structure is given as a SMILES string. Converted amounts (≈) assume the structure as drawn. Where two headings read alike, the source gives them in different places.

As to `CCCCCCCNC(=O)NNC(=O)c1cc([N+](=O)[O-])cc([N+](=O)[O-])c1` [Compound 4g, 2-(3,5-Dinitrobenzoyl)-N-heptylhydrazine-1-carboxamide], the MIC in assay [1] (setting [3]) was 125 µM (≈ 45.9 µg/mL); in assay [1] (setting [4]), 250 µM (≈ 91.8 µg/mL); in assay [1] (330/88, read-out: MIC M. avium), 125 to 250 µM (≈ 45.9 to 91.8 µg/mL); against Mtb 331/88 (i.e., H37Rv) (336 h, 14 days) it was 0.5 µM (≈ 0.184 µg/mL); with Mtb 331/88 (i.e., H37Rv) (504 h, 21 days), 0.5 µM (≈ 0.184 µg/mL); in assay [2] (6509/96, 168 h), 1 µM (≈ 0.367 µg/mL). Also, the MIC amounted to 1 µM (≈ 0.367 µg/mL) in assay [2] (6509/96, 336 h) and 1 µM (≈ 0.367 µg/mL) in assay [2] (6509/96, 504 h). Also, in the assay on HepG2 cells (Homo sapiens, HepG2, 24 h), the IC50 turned out to be 117 µM.

As to `CCCCCCCCCCCCCCNc1nnc(-c2cc([N+](=O)[O-])cc([N+](=O)[O-])c2)o1` [Compound 5n, 5-(3,5-Dinitrophenyl)-N-tetradecyl-1,3,4-oxadiazol-2-amine], the MIC in assay [1] (setting [3]) came to 8 µM (≈ 3.58 µg/mL); in assay [1] (setting [4]), 16 µM (≈ 7.16 µg/mL); in the assay with Mtb 331/88 (i.e., H37Rv) (336 h, 14 days), 1 µM (≈ 0.448 µg/mL); against Mtb 331/88 (i.e., H37Rv) (504 h, 21 days), 1 µM (≈ 0.448 µg/mL); in assay [2] (6509/96, 168 h), 0.25 µM (≈ 0.112 µg/mL); in assay [2] (6509/96, 336 h) it was 0.5 µM (≈ 0.224 µg/mL). The MIC in assay [2] (6509/96, 504 h) was 1 µM (≈ 0.448 µg/mL). The IC50 with HepG2 cells (Homo sapiens, HepG2, 24 h) is above 50 µM.

Regarding `CCCCCCCCCCNc1nnc(-c2cc([N+](=O)[O-])cc([N+](=O)[O-])c2)o1` [Compound 5j, N-Decyl-5-(3,5-dinitrophenyl)-1,3,4-oxadiazol-2-amine], the MIC is 4 µM (≈ 1.57 µg/mL) in assay [1] (setting [3]); 8 µM (≈ 3.13 µg/mL) in assay [1] (setting [4]); 0.5 µM (≈ 0.196 µg/mL) in the assay on Mtb 331/88 (i.e., H37Rv) (336 h, 14 days); 1 µM (≈ 0.391 µg/mL) in the assay with Mtb 331/88 (i.e., H37Rv) (504 h, 21 days); 1 µM (≈ 0.391 µg/mL) in assay [2] (6509/96, 168 h); 1 µM (≈ 0.391 µg/mL) in assay [2] (6509/96, 336 h). The MIC in assay [2] (6509/96, 504 h) was found to be 1 µM (≈ 0.391 µg/mL). In addition, in the assay on HepG2 cells (Homo sapiens, HepG2, 24 h), the IC50 is above 100 µM.

`CCCCCCCCCCCCCCCNC(=O)NNC(=O)c1cc([N+](=O)[O-])cc([N+](=O)[O-])c1` [Compound 4o, 2-(3,5-Dinitrobenzoyl)-N-pentadecylhydrazine-1-carboxamide]: the MIC in assay [1] (setting [3]) is above 500 µM; in assay [1] (setting [4]) it was above 500 µM; against Mtb 331/88 (i.e., H37Rv) (336 h, 14 days) it was 8 µM (≈ 3.84 µg/mL); in the assay on Mtb 331/88 (i.e., H37Rv) (504 h, 21 days), 16 µM (≈ 7.67 µg/mL); in assay [2] (6509/96, 168 h) it was 8 µM (≈ 3.84 µg/mL); in assay [2] (6509/96, 336 h) it was 8 µM (≈ 3.84 µg/mL). Besides, the MIC in assay [2] (6509/96, 504 h) is 16 µM (≈ 7.67 µg/mL). The IC50 in the assay with HepG2 cells (Homo sapiens, HepG2, 24 h) is below 100 µM; with HepG2 cells, 82.5 µM.

In the case of `CCCCCCCCCCCCNc1nnc(-c2cc([N+](=O)[O-])cc([N+](=O)[O-])c2)o1` [Compound 5l, 5-(3,5-Dinitrophenyl)-N-dodecyl-1,3,4-oxadiazol-2-amine], the MIC in assay [1] (setting [3]) is 4 µM (≈ 1.68 µg/mL); in assay [1] (setting [4]), 8 µM (≈ 3.36 µg/mL); against Mtb 331/88 (i.e., H37Rv) (336 h, 14 days), 1 µM (≈ 0.419 µg/mL); in the assay on Mtb 331/88 (i.e., H37Rv) (504 h, 21 days), 1 µM (≈ 0.419 µg/mL); in assay [2] (6509/96, 168 h) it was 1 µM (≈ 0.419 µg/mL); in assay [2] (6509/96, 336 h) it was 1 µM (≈ 0.419 µg/mL). In assay [2] (6509/96, 504 h), the MIC stood at 1 µM (≈ 0.419 µg/mL). In the assay on HepG2 cells (Homo sapiens, HepG2, 24 h), the IC50 was above 50 µM.

As to `CCCCCCNC(=O)NNC(=O)c1cc([N+](=O)[O-])cc([N+](=O)[O-])c1` [Compound 4f, 2-(3,5-Dinitrobenzoyl)-N-hexylhydrazine-1-carboxamide], the MIC in assay [1] (setting [3]) is 250 µM (≈ 88.3 µg/mL); in assay [1] (setting [4]) it was 250 µM (≈ 88.3 µg/mL); in assay [1] (330/88, read-out: MIC M. avium) it was 125 to 250 µM (≈ 44.2 to 88.3 µg/mL); in the assay on Mtb 331/88 (i.e., H37Rv) (336 h, 14 days) it was 1 µM (≈ 0.353 µg/mL); against Mtb 331/88 (i.e., H37Rv) (504 h, 21 days), 1 µM (≈ 0.353 µg/mL); in assay [2] (6509/96, 168 h) it was 1 µM (≈ 0.353 µg/mL). The MIC in assay [2] (6509/96, 336 h) amounted to 1 µM (≈ 0.353 µg/mL); in assay [2] (6509/96, 504 h), 1 µM (≈ 0.353 µg/mL). Besides, in the assay with HepG2 cells (Homo sapiens, HepG2, 24 h), the IC50 is 119 µM.

Turning to `CCCCCCCCCCCCCCCNc1nnc(-c2cc([N+](=O)[O-])cc([N+](=O)[O-])c2)o1` [Compound 5o, 5-(3,5-Dinitrophenyl)-N-pentadecyl-1,3,4-oxadiazol-2-amine], the MIC is 8 µM (≈ 3.69 µg/mL) in assay [1] (setting [3]); 16 µM (≈ 7.39 µg/mL) in assay [1] (setting [4]); 2 µM (≈ 0.923 µg/mL) in the assay with Mtb 331/88 (i.e., H37Rv) (336 h, 14 days); 2 µM (≈ 0.923 µg/mL) against Mtb 331/88 (i.e., H37Rv) (504 h, 21 days); 0.5 µM (≈ 0.231 µg/mL) in assay [2] (6509/96, 168 h); 1 µM (≈ 0.462 µg/mL) in assay [2] (6509/96, 336 h). The MIC in assay [2] (6509/96, 504 h) amounted to 2 µM (≈ 0.923 µg/mL). Also, in the assay on HepG2 cells (Homo sapiens, HepG2, 24 h), the IC50 is above 50 µM.

The term IC50 denotes the midpoint of a concentration-inhibition curve.
